Test results as given in PubChem BioAssay AID1963869 (Molecular Pharmacology Branch, DTP, NCI, 2024).

System: KRAS patient-derived spheroids with HUVEC/MSC, viability
Assay: Anticancer human tumor 323965-272-R-J2-PDC patient-derived pancreatic carcinoma cell line growth inhibition [KRAS2]
Conditions: for IC50: curve of first compound; for viability, T/C: stronger effect = lower value
In short: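 KRAS-mutant tumor cells were grown as spheroids with HUVEC endothelial cells and human MSCs as stroma. Targeted agents were tested alone and with KRAS pathway inhibitors. Doses started at or near clinical Cmax, or 10 microM, descending half-log.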

[1] = second compound 0.1 µM, first compound 0.0316 µM
[2] = second compound 0.1 µM, first compound 0.1 µM
[3] = second compound 0.1 µM, first compound 0.316 µM
[4] = second compound 0.1 µM, first compound 1 µM
[5] = second compound 0.1 µM, first compound 3.16 µM
[6] = second compound 0.1 µM, first compound 10 µM
[7] = second compound 0.316 µM, first compound 0.0316 µM
[8] = second compound 0.316 µM, first compound 0.1 µM
[9] = second compound 0.316 µM, first compound 0.316 µM
[10] = second compound 0.316 µM, first compound 1 µM
[11] = second compound 0.316 µM, first compound 3.16 µM
[12] = second compound 0.316 µM, first compound 10 µM
[13] = second compound 1 µM, first compound 0.0316 µM
[14] = second compound 1 µM, first compound 0.1 µM
[15] = second compound 1 µM, first compound 0.316 µM
[16] = second compound 1 µM, first compound 1 µM
[17] = second compound 1 µM, first compound 3.16 µM
[18] = second compound 1 µM, first compound 10 µM
[19] = second compound 3.16 µM, first compound 0.0316 µM
[20] = second compound 3.16 µM, first compound 0.1 µM
[21] = second compound 3.16 µM, first compound 0.316 µM
[22] = second compound 3.16 µM, first compound 1 µM
[23] = second compound 3.16 µM, first compound 3.16 µM
[24] = second compound 3.16 µM, first compound 10 µM
[25] = second compound 0.1 µM, first compound 0.01 µM
[26] = second compound 0.316 µM, first compound 0.01 µM
[27] = second compound 1 µM, first compound 0.01 µM
[28] = second compound 3.16 µM, first compound 0.01 µM
[29] = second compound 10 µM, first compound 0.01 µM
[30] = second compound 10 µM, first compound 0.0316 µM
[31] = second compound 10 µM, first compound 0.1 µM
[32] = second compound 10 µM, first compound 0.316 µM
[33] = second compound 10 µM, first compound 1 µM
[34] = second compound 10 µM, first compound 3.16 µM
[35] = second compound 0.1 µM, first compound 0.00316 µM
[36] = second compound 0.316 µM, first compound 0.00316 µM
[37] = second compound 1 µM, first compound 0.00316 µM
[38] = second compound 3.16 µM, first compound 0.00316 µM
[39] = second compound 10 µM, first compound 0.00316 µM
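Also: spheroids exposed to agents for 7 days.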
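For viability, T/C in this document: 100% = DMSO vehicle control viability.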

Row | SMILES | IC50 (second compound 0.1 µM) [µM] | IC50 (second compound 0.316 µM) [µM] | IC50 (second compound 1 µM) [µM] | IC50 (second compound 3.16 µM) [µM] | viability, T/C [1] [%] | viability, T/C [2] [%] | viability, T/C [3] [%] | viability, T/C [4] [%] | viability, T/C [7] [%] | viability, T/C [8] [%] | viability, T/C [9] [%] | viability, T/C [10] [%] | viability, T/C [13] [%] | viability, T/C [14] [%] | viability, T/C [15] [%] | viability, T/C [16] [%] | viability, T/C [19] [%] | viability, T/C [20] [%] | viability, T/C [21] [%] | viability, T/C [22] [%] | other results
1 | CCNC(=O)CC1N=C(c2ccc(Cl)cc2)c2cc(OC)ccc2-n2c(C)nnc21 (stereo not given) + C=CC(=O)N1CCN(c2nc(OCC3CCCN3C)nc3c2CCN(c2cccc4cccc(C)c24)C3)CC1CC#N | 0.101 | 0.24 | 0.111 | < 0.0316 | 63.1 | 51.1 | 35.6 | 31.9 | 89.5 | 91.3 | 37.3 | 29.7 | 60.4 | 50.6 | 38.5 | 27 | 10.5 | 6.25 | 3.72 | 0.16 | IC50 (second compound 0.0316 µM): 0.21 µM; viability, T/C (second compound 0.0316 µM, first compound 0.0316 µM): 75.3%; viability, T/C (second compound 0.0316 µM, first compound 0.1 µM): 59.5%; viability, T/C (second compound 0.0316 µM, first compound 0.316 µM): 46.3%; viability, T/C (second compound 0.0316 µM, first compound 1 µM): 30.4%; viability, T/C (second compound 0.0316 µM, first compound 3.16 µM): 26.4%; viability, T/C (second compound 0.0316 µM, first compound 10 µM): 27.2%; viability, T/C [5]: 26.3%; viability, T/C [6]: 24.2%; viability, T/C [11]: 24.7%; viability, T/C [12]: 24.1%; viability, T/C [17]: 22.6%; viability, T/C [18]: 22.5%; viability, T/C [23]: 1.28%; viability, T/C [24]: 0.88%
2 | CC(=O)OC12COC1CC(O)C1(C)C(=O)C(O)C3=C(C)C(OC(=O)C(O)C(NC(=O)OC(C)(C)C)c4ccccc4)CC(O)(C(OC(=O)c4ccccc4)C21)C3(C)C (stereo not given) + COc1cc2nc(C)nc(NC(C)c3cc(N)cc(C(F)(F)F)c3)c2cc1OC1CCOC1 | < 0.01 | < 0.01 | < 0.01 | < 0.01 | 28.6 | 23.8 | 23.2 | 28.2 | 24.5 | 21.6 | 22.4 | 24.5 | 28 | 27.6 | 27.2 | 30.4 | 20.1 | 18.8 | 20.4 | 20.1 | IC50 (second compound 10 µM): < 0.01 µM; viability, T/C [25]: 28.6%; viability, T/C [5]: 25.2%; viability, T/C [26]: 24.2%; viability, T/C [11]: 25.2%; viability, T/C [27]: 21.6%; viability, T/C [17]: 35.3%; viability, T/C [28]: 21.4%; viability, T/C [23]: 24.3%; viability, T/C [29]: 23.1%; viability, T/C [30]: 21.2%; viability, T/C [31]: 17.8%; viability, T/C [32]: 17.1%; viability, T/C [33]: 21.2%; viability, T/C [34]: 15.8%
3 | CCN1CCN(Cc2ccc(Nc3ncc(F)c(-c4cc(F)c5nc(C)n(C(C)C)c5c4)n3)nc2)CC1 + CNCc1ccccc1-c1csc(C(C)Nc2nc(C)nc3cc(OC)c(OC)cc23)c1 | > 1 | > 1 | > 1 | 0.127 | 59.8 | 47 | 51.5 | 59.7 | 65.7 | 56 | 53 | 56 | 72.6 | 71.8 | 61.8 | 57.7 | 68.4 | 53.4 | 33 | 1.27 | IC50 (second compound 10 µM): < 0.00316 µM; viability, T/C [35]: 91.5%; viability, T/C [25]: 85.2%; viability, T/C [36]: 97.3%; viability, T/C [26]: 93.3%; viability, T/C [37]: 94.2%; viability, T/C [27]: 92.8%; viability, T/C [38]: 80%; viability, T/C [28]: 79.2%; viability, T/C [39]: 0.23%; viability, T/C [29]: 0.23%; viability, T/C [30]: 0.18%; viability, T/C [31]: 0.16%; viability, T/C [32]: 0.16%; viability, T/C [33]: 0.18%
4 | CCN1CCN(Cc2ccc(Nc3ncc(F)c(-c4cc(F)c5nc(C)n(C(C)C)c5c4)n3)nc2)CC1 + CC1OCC2(CCN(c3cnc(Sc4ccnc(N)c4Cl)c(N)n3)CC2)C1N | 0.0252 | 0.0146 | < 0.00316 | < 0.00316 | 45.8 | 46.4 | 42 | 49.7 | 42.1 | 36.8 | 35.5 | 42.3 | 26.2 | 23.4 | 26.1 | 35.3 | 14.9 | 14.7 | 17.9 | 29.5 | IC50 (second compound 10 µM): < 0.00316 µM; viability, T/C [35]: 72.6%; viability, T/C [25]: 66.4%; viability, T/C [36]: 51.3%; viability, T/C [26]: 56.5%; viability, T/C [37]: 38.5%; viability, T/C [27]: 37.7%; viability, T/C [38]: 18.8%; viability, T/C [28]: 15.7%; viability, T/C [39]: 13.7%; viability, T/C [29]: 16.3%; viability, T/C [30]: 13.9%; viability, T/C [31]: 10.5%; viability, T/C [32]: 14.5%; viability, T/C [33]: 25.7%
5 | COC(=O)c1ccc2c(C(=Nc3ccc(N(C)C(=O)CN4CCN(C)CC4)cc3)c3ccccc3)c(O)[nH]c2c1 + CNCc1ccccc1-c1csc(C(C)Nc2nc(C)nc3cc(OC)c(OC)cc23)c1 | > 10 | > 10 | > 10 | > 10 | 94.9 | 90 | 102 | 94.2 | 90.6 | 88.4 | 97 | 98.2 | 90.3 | 90.8 | 85.7 | 79.6 | 102 | 105 | 99.6 | 103 | IC50 (second compound 10 µM): < 0.0316 µM; viability, T/C [5]: 95.7%; viability, T/C [6]: 89.2%; viability, T/C [11]: 94.3%; viability, T/C [12]: 86.5%; viability, T/C [17]: 93.7%; viability, T/C [18]: 90.4%; viability, T/C [23]: 90%; viability, T/C [24]: 88.6%; viability, T/C [30]: 0.33%; viability, T/C [31]: 1.26%; viability, T/C [32]: 0.33%; viability, T/C [33]: 0.3%; viability, T/C [34]: 0.44%; viability, T/C (second compound 10 µM, first compound 10 µM): 0.35%
6 | CC1COCCN1c1cc(-c2ccnn2C)c2ccnc(-c3ccn[nH]3)c2n1 (stereo not given) + C=CC(=O)N1CCN(c2nc(=O)n(-c3c(C)ccnc3C(C)C)c3nc(-c4c(O)cccc4F)c(F)cc23)C(C)C1 | 0.0116 | < 0.01 | 0.0119 | < 0.01 | 28 | 18.7 | 13.7 | 13.8 | 28.8 | 18 | 14.4 | 16.1 | 28 | 18.9 | 14.5 | 14.1 | 22.8 | 15.5 | 14.1 | 13.3 | IC50 (second compound 10 µM): < 0.01 µM; viability, T/C [25]: 53.6%; viability, T/C [5]: 11.8%; viability, T/C [26]: 44.2%; viability, T/C [11]: 12.6%; viability, T/C [27]: 54.1%; viability, T/C [17]: 13.5%; viability, T/C [28]: 40.6%; viability, T/C [23]: 12.8%; viability, T/C [29]: 20.9%; viability, T/C [30]: 17.4%; viability, T/C [31]: 16.8%; viability, T/C [32]: 13.2%; viability, T/C [33]: 13.4%; viability, T/C [34]: 13.2%
